Measured values taken from patent EP0652009A1, “Identification and use of protease inhibitors” (ELI LILLY AND COMPANY, priority 1993, dated 1995).

What follows are compounds tested against Cathepsin D (Homo sapiens, UniProt P07339) (assay: Assay 3: cathepsin D inhibition activity (non-cellular assay, chromogenic substrate)). Conditions: 4 µM test compound; inhibition of initial rate relative to control; cathepsin D from human placental tissue.
Format: biochemical
Design: Frozen human placental tissue was thawed and homogenized; from tissue; host or cells: human placenta
Experimental: A third non-cellular assay for determining in vitro aspartyl protease inhibitory activity is generally described in Jupp, R.A. et al., (1990) Biochem. J., 265:871-878 and Rao et al., J. Med. Chem. (1993), in press. The assay is carried out by incubating a test compound with a suitable aspartyl protease, such as cathepsin D, in the presence of a chromogenic substrate. The inhibition constant, Ki, value may then be determined by quantifying the competitive inhibition of the hydrolysis of the chromogenic substrate. A variety of chromogenic substrates that are useful for assaying aspartyl protease activity are discussed in Dunn, et al., (1986) Biochem. J., 237:899-906. A preferred chromogenic substrate for a cathepsin D assay is disclosed in Scarborough, P.E. et al., Protein Science, (1993), 2:264-276.
Concentrations of substrate solutions and cleavage products may be verified using amino acid analysis. The enzyme preparations may be titrated with a tightly binding inhibitor to quantitate the active concentration of the enzyme. Enzyme concentrations are typically in the range of from 1-6 nM. Stock solutions of the test compound are prepared at concentrations ranging from 1.0 to 5.0 mg/mL, and then 50-100 µL portions of these stock solutions may be further diluted to a concentration in the range of 5 to 300 µM for rate determinations.
[…] Then, the test compounds are assayed over a concentration range of, for example, 5 to 300 µM for rate determinations.
A decrease in absorbance in the range of 284-324 nm may be monitored using a spectrophotometer. Absorbance readings are typically taken at various timepoints. The initial velocities are then plotted versus the initial substrate concentration. […] Estimates of Ki may then be determined using the Dixon construction. Dixon, M., (1953) Biochem J., 55:170-171.
If the ratio of the total active enzyme concentration to the estimated Ki value ([E]t/Ki) is less than 0.2, then the precise Ki value may be computed by using a non-linear curve fitting program based on the equation: v= Vmax [S]/[S] + Km (1 + [I]/Ki ) [formula] where v is the initial rate, [S] is the initial substrate concentration, [I] is the inhibitor concentration and Km and Ki are defined above. […] P.J.F., (1972) Biochem J., 127:321-333. This Assay is exemplfied in Assay 3.
The homogenate was centrifuged at 10,000 rpm for 30 minutes in a Sorvall GSA rotor. The supernatant was adjusted to pH 3.7 using 5.7N HCl and then sodium acetate was added to a concentration of 0.1M. The resultant mixture was incubated for 30 minutes at 0°C, resulting in the formation of a precipitate. This precipitate was removed by centrifugation (30 minutes, 10,000 rpm). The acidic supernatent was applied to a chromatography column (pepstatinyl agarose equilibrated with 0.1M sodium acetate, pH 3.5, 0.1% Brij 35, and 1M NaCl), washed until the OD₂₈₀ of the effluent returned to baseline, and then eluted with 50mM Tris-HCl, pH 8.6, 0.1% Brij 35, and 1M NaCl. The eluent was dialyzed against 10mM sodium phosphate, pH 7.0, 0.1% Brij 35, and 0.1M NaCl, and then applied to a 1 mL DEAE-Sephacel column equilibrated with the same buffer. Cathepsin D was recovered in the breakthrough fraction.
The enzyme mixture (125 µL buffer (0.1M sodium formate at pH 3.7), 1 µL of a 1mM solution of test compound, 4 µL of DMSO, enzyme and water to provide a total volume of 230 µL) was vortexed and prewarmed for four minutes before the addition of the chromogenic substrate. After warming, the enzyme mixture was added to 20 µL of a […] dilution of substrate solution. A control reaction mixture was similarly prepared without the addition of the test compound. The percent of inhibition of the initial rate of reaction in the presence of a particular concentration of test compound (i.e. 4 µM) may be determined for the test compound by monitoring the reaction mixture in parallel to the control reaction. […]

Cathepsin D, sequence (P07339 169-412 limits assumed): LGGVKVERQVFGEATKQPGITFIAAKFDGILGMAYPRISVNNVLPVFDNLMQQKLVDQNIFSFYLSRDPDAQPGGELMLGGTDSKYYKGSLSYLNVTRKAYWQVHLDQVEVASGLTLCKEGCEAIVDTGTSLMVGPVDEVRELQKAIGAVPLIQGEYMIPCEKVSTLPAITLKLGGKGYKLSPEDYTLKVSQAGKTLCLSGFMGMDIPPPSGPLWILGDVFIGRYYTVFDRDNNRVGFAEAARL
Cathepsin D, sequence (P07339 65-162 limits assumed): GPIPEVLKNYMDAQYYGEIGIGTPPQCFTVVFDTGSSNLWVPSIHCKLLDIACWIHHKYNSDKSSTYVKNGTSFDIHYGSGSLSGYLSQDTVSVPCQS

| % inhibition at 4µ M [%] | Compound |
| --- | --- |
| 32 | [1S-(1R*,4R*,5S*)]-N-(1-(2-Amino-2-oxoethyl)-2-oxo-3-aza-4-phenylmethyl-5-hydroxy-6-(2-(1-t-butylamino-1- oxomethyl)phenyl)hexyl)-2-(6,7,8,9-tetrahydronaphthyl) carboxamide [Example 11] |

Same assay, conditions: 4 µM test compound; inhibition of initial rate relative to control; cathepsin D from human placental tissue; read-out: % inhibition at 4µ M

| Compound | inhibition at 4 µM [%] |
| --- | --- |
| CC(C)(C)NC(=O)c1ccccc1C[C@@H](O)[C@H](Cc1ccccc1)NC(=O)[C@H](Cc1c[nH]cn1)NC(=O)[C@H](Cc1cccc2ccccc12)NC(=O)OC(C)(C)C [Example 27, [2R-(2R*,3S*,6S*,9S*)]-N-t-Butyl-2-[2-hydroxy-3-phenylmethyl-4,7-diaza-5,8-dioxo-6-(imidazol-4-ylmethyl)-9-N(t-butoxycarbonyl)amino-10-naphth-1-yl]decyl benzamide] | 40 |
| CC(C)(C)NC(=O)c1ccccc1C[C@@H](O)[C@H](Cc1ccccc1)NC(=O)[C@H](Cc1cnc[nH]1)NC(=O)[C@@H](Cc1cccc2ccccc12)NC(=O)OC(C)(C)C [Example 28, [2R-(2R*,3S*,6S*,9R*)]-N-t-Butyl-2-[2-hydroxy-3-phenylmethyl-4,7-diaza-5,8-dioxo-6-(imidazol-4-ylmethyl)-9-N(t-butoxycarbonyl)amino-10-naphth-1-yl]decyl benzamide] | 6 |
| CC(C)(C)NC(=O)c1ccccc1C[C@@H](O)[C@H](Cc1ccccc1)NC(=O)[C@@H](CC(=O)O)NS(C)(=O)=O [Example 31, [2R-(2R*,3S*,6R*)]-N-t-Butyl-2-[2-hydroxy-3-phenylmethyl-4-aza-5-oxo-6-N(methylsulfonyl)amino-7-carboxy]heptyl benzamide] | 43 |
| CC(C)(C)NC(=O)c1ccccc1C[C@@H](O)[C@H](Cc1ccccc1)NC(=O)[C@H](CC(N)=O)NS(=O)(=O)CCc1cccc2ccccc12 [Example 32, [2R-(2R*,3S*,6S*)]-N-t-Butyl-2-[2-hydroxy-3-phenylmethyl-4-aza-5-oxo-6-N(naphth-1-ylethylsulfonyl)amino-7-carbamoyl]heptyl benzamide] | 12 |

Same assay, conditions: cathepsin D from human placental tissue, chromogenic substrate, pH 3.7, 37°C

| Ki [nM] | Compound |
| --- | --- |
| 23 ± 3 | CC(C)C(NC(=O)OCc1ccccc1)C(=O)NC(Cc1ccccc1)C(O)C(O)C(Cc1ccccc1)NC(=O)C(NC(=O)OCc1ccccc1)C(C)C [Example 33, 1,6-Diphenyl-2(S),5(S)-di[N-[2(S)-N(benzyloxycarbonyl)amino-3-methyl-butanoyl]amino]-3,4-dihydroxyhexane] |
| 18 | CC(C)C(NC(=O)OCc1ccc2ccccc2n1)C(=O)NC(Cc1ccccc1)C(O)C(O)C(Cc1ccccc1)NC(=O)C(NC(=O)OCc1ccc2ccccc2n1)C(C)C [Example 34, 1,6-Diphenyl-2(S),5(S)-di[N-[2(S)-N(quinolin-2-ylmethoxycarbonyl)amino-3-methylbutanoyl]amino]-3,4-dihydroxyhexane] |
| 86 | CC(C)C(NC(=O)OCc1ccccn1)C(=O)NC(Cc1ccccc1)C(O)C(O)C(Cc1ccccc1)NC(=O)C(NC(=O)OCc1ccccn1)C(C)C [Example 35, 1,6-Diphenyl-2(S),5(S)-di[N-[2(S)-N(pyrid-2-ylmethoxycarbonyl)amino-3-methylbutanoyl]amino]-3,4-dihydroxyhexane] |

| Compound | Ki [nM] |
| --- | --- |
| CC(C)(C)NC(=O)c1ccccc1CC(O)C(Cc1ccccc1)NC(=O)C(CC(N)=O)NC(=O)C(Cc1cccc2ccccc12)NC(=O)OC(C)(C)C (stereo not drawn) [Example 26, [2R-(2R*,3S*,6S*,9S*)]-N-t-Butyl-2-[2-hydroxy-3-phenylmethyl-4,7-diaza-5,8-dioxo-6-(2-amino-2-oxoethyl)-9-N(t-butoxycarbonyl)amino-10-naphth-1-yl]decyl benzamide] | 2300 ± 410 |
